Measured values reported in patent US7098217B2, “3,7-dihydro-purine-2,6-dione derivatives as CRF receptor ligands” (Bristol-Myers Squibb Company, priority 2001, dated 2006).

SMILES | melting point
C=CCC(CC=C)n1c(CC)nc2c1c(=O)n(C)c(=O)n2-c1ccc(Cl)cc1Cl [Example 4, 7-(1-allyl-3-butenyl)-3-(2,4-dichlorophenyl)-8-ethyl-1-methyl-3,7-dihydro-1H-purine-2,6-dione] | 145 to 146 °C
CCc1nc2c(c(=O)n(C)c(=O)n2-c2ccc(Cl)cc2Cl)n1Cc1ccc(OC)cc1 [Example 7, 3-(2,4-dichlorophenyl)-8-ethyl-7-(4-methoxybenzyl)-1-methyl-3,7-dihydro-1H-purine-2,6-dione] | 209 to 210 °C
CCCC(CCC)n1c(CC)nc2c1c(=O)n(C)c(=O)n2-c1c(C)cc(C)cc1C [Example 79, 8-ethyl-7-(4-heptyl)-1-methyl-3-(2,4,6-trimethylphenyl)-3,7-dihydro-1H-purine-2,6-dione] | 195 to 195.5 °C
CCCC(CCC)n1c(CC)nc2c1c(=O)n(C)c(=O)n2-c1c(OC)ccnc1C [Example 117, 8-ethyl-7-(4-heptyl)-3-(4-methoxy-2-methylpyrid-3-yl)-1-methyl-3,7-dihydro-1H-purine-2,6-dione] | 124 to 126 °C

Continued, values first:

melting point | SMILES
186 to 187 °C | CCc1nc2c(c(=O)n(C)c(=O)n2-c2ccc(Cl)cc2Cl)n1C(CC)CC [Example 1, 3-(2,4-dichlorophenyl)-8-ethyl-1-methyl-7-(3-pentyl)-3,7-dihydro-1H-purine-2,6-dione]
185 to 186 °C | CCCC(CCC)n1c(CC)nc2c1c(=O)n(C)c(=O)n2-c1ccc(Cl)cc1Cl [Example 2, 3-(2,4-dichlorophenyl)-8-ethyl-7-(4-heptyl)-1-methyl-3,7-dihydro-1H-purine-2,6-dione]
158 to 159 °C | CCC(CC)n1cnc2c1c(=O)n(C)c(=O)n2-c1ccc(Cl)cc1Cl [Example 5, 3-(2,4-dichlorophenyl)-1-methyl-7-(3-pentyl)-3,7-dihydro-1H-purine-2,6-dione]
